This note sets out measurements from PMC9877316, “Identification of a novel P2X7 antagonist using structure-based virtual screening” (Frontiers in Pharmacology, 2023).

One test has as its target T1, human P2X7 (Homo sapiens, UniProt Q99572).
T1 construct: expressed in transfected cells; host or cells: 1321N1 astrocytoma cells (compounds 1-17); HEK-293 cells stably expressing human P2X7 (gift of E. Adinolfi)
T1 sequence (Q99572 1-595): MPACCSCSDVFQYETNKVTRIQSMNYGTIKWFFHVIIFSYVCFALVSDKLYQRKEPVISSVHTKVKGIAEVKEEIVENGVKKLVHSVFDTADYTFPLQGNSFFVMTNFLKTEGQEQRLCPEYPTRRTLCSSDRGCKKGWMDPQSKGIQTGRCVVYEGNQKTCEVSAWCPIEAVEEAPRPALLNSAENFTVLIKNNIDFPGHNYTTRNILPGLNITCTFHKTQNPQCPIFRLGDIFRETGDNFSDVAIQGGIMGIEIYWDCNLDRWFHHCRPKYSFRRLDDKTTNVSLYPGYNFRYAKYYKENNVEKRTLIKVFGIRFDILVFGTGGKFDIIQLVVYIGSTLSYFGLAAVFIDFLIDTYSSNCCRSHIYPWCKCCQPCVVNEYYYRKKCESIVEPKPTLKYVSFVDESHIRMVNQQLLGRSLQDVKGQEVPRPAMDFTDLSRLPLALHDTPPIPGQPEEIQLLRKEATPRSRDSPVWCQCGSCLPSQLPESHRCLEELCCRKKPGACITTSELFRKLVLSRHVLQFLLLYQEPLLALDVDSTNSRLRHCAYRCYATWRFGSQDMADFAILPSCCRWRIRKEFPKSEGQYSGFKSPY
Briefly: ATP-induced YoPro-1 dye uptake assay, human P2X7. Format: cell-based. To be noted: 300 µM ATP, YoPro-1 uptake. As to the method: (§1) 1321N1 astrocytoma cells and HEK-293 cells were cultured (at 37°C, 5% CO2) in Dulbecco’s modified Eagle’s medium (DMEM/F-12 with Glutamax) supplemented with 10% foetal bovine serum (FBS) and 200 unit/ml of penicillin and streptomycin antibiotics (Fisher Scientific). For stable cell line generation, cells were transfected using FuGene HD Transfection Reagent (Promega) according to the manufacturer’s protocol with plasmids encoding either human P2X4 with a C-terminal (His)10 tag ([Young et al., 2008]), human P2X7 with a C-terminal EYMPME tag (kindly provided by R.A. North) or rat P2X7 C-terminally tagged with a GFP-(His)8 tag, generated by PCR amplification of the coding sequence for rat P2X7 from a pcDNA-based expression vector ([Young et al., 2007]), adding XhoI and EcoRI sites at the 5′- and 3′- ends respectively, followed by restriction digestion and ligation into a zebrafish P2X4-GFP expression vector based on pEGFP-C1 (kindly provided by Eric Gouaux; [Kawate and Gouaux, 2006]) to replace the zebrafish P2X4 coding region with rP2X7. Transfected clones were grown in DMEM/F-12 with Glutamax medium supplemented with G-418 (Geneticin®, Fisher Scientific), 600 μg/ml and 150 μg/ml during selection and maintenance respectively. […] HEK-293 cells stably expressing human P2X7 ([Adinolfi et al., 2010]) were a kind gift from Elena Adinolfi.
(§2) Cells were plated as for the calcium influx assay (Section 2.4). Culture medium was replaced with low divalent cation containing extracellular solution (ECS-LD; 147 mM NaCl, 10 mM HEPES, 13 mM Glucose, .2 mM CaCl2, 2 mM KCl. pH = 7.4 in MilliQ water) and 5 μM Yopro-1. […] The baseline was measured with a BMG Clariostar instrument for 5–10 cycles, followed by addition of ATP (or BzATP) and recording for at least 30 further cycles (approx. 1 min per data point). The collected responses were normalized to the first data-point recorded after ATP addition. The initial gradient of the dye uptake curve was used to calculate the response to ATP.
The antagonist activity of the 17 compounds (applied at 10 µM) was assayed initially on 1321N1 astrocytoma cells stably expressing human P2X4 receptors by measuring the ATP-induced (applied at 1.2 µM) increase in Fluo-4 fluorescence due to calcium influx via P2X4, using 2 µM BX430 as a positive control (Figure 1A). […] The ATP-induced rate of uptake of YoPro-1 dye was measured upon application of at 300 µM ATP, using .1 µM A740003 as a positive control (Figure 1B).
A small library of 16 commercially available compounds was selected according to the presence of the same scaffold as GP-25, (70% similarity, Tanimoto index) and/or presence of at least one functional group we hypothesized could contribute to GP-25 activity (e.g. carboxylic acid, halogen substituent to the aromatic ring, ester, etc.) (Compounds 18–33; Table 1). […] Although the number of compounds tested was limited by their availability via a commercial source, the numerous ‘hits’ allowed for a basic structure-relationship (SAR) analysis.

The target in another test is T2, rat P2X7 (Rattus norvegicus, UniProt Q64663).
T2 construct: expressed in transfected cells; host or cells: HEK-293 cells stably expressing rat P2X7-GFP (patch clamp)
T2 sequence (Q64663 1-595): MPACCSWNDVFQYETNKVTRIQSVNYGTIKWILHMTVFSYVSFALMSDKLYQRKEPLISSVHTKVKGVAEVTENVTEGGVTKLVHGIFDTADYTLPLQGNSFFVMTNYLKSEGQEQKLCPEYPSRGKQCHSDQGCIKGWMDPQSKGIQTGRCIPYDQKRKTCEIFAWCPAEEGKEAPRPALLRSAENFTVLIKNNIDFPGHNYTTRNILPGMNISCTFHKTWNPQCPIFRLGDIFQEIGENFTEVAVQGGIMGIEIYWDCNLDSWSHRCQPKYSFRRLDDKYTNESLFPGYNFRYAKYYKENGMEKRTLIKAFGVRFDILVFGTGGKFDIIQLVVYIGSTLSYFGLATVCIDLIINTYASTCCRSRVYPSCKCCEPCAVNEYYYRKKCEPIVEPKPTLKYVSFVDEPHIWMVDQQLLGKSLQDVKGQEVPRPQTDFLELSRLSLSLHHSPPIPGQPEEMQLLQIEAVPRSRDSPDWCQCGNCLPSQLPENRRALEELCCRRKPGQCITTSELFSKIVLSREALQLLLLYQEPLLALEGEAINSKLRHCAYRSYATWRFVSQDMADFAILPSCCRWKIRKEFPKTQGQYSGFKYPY
In words: ATP/BzATP-induced YoPro-1 dye uptake assay, rat P2X7. Format: cell-based. As to the method: as §1, §2
In order to confirm GP-25 as a competitive (orthosteric) antagonist, BzATP concentration-response curves (ranging between 300 μM and .03 µM) were constructed for rat P2X7-GFP in the YoPro-1 uptake assay in the presence of increasing concentrations of GP-25 (Figure 3A).

Usually inhibition stands for how much of the control response was suppressed. What is called IC50 is the concentration that inhibits the measured activity by half. Regarding `COC(=O)C1=C(C)NC2=C(C(=O)c3ccccc32)C1c1cc(Br)ccc1OCC(=O)O` (stereo not drawn) [Compound 9, (4-bromo-2-(3-(methoxycarbonyl)-2-methyl-5-oxo-4,5-dihydro-1H-indeno(1,2-b)pyridine-4-yl)phenoxy)acetic acid], the inhibition at 30 µM on human P2X7 (P2X7, approx. % inhibition at 30 μM compound, 1321N1 (1-17) or HEK (18-33) cells, read-out: % Inhibition at hP2X7) is ~75%; at rat P2X7 (approx. % inhibition at 30 μM compound, 300 µM ATP, YoPro-1 uptake, rat P2X7-GFP, read-out: % Inhibition at rP2X7), 47%. For the same compound, the IC50 on human P2X7 stood at 8.7 µM; against rat P2X7 (YoPro-1 uptake, 300 µM ATP) it was 24.4 µM. On rat P2X7 (BzATP concentration-response curves, rat P2X7-GFP, increasing GP-25 up to 100 µM), the Schild plot slope was 1.004 ± .2584. Besides, the “mode of antagonism (Schild analysis)” value at rat P2X7 (BzATP, rat P2X7-GFP, YoPro-1) is given as “competitive (orthosteric) antagonism”.
